From patent publication US9156845B2, “4-(substituted amino)-7H-pyrrolo[2,3-d] pyrimidines as LRRK2 inhibitors” (Pfizer Inc., priority 2012, dated 2015)
Read-outs that look alike come from different tables or passages of the source.

What was measured:
Assay in all cases: ActivX kinase probe assay (human PBMC)
Assay type in all cases: binding
[1] = biological target: ACK (Homo sapiens (Human), UniProt Q07912); details: read-out: percent inhibition
[2] = biological target: eEF2K (Homo sapiens (Human), UniProt O00418); details: read-out: percent inhibition
[3] = biological target: NEK1 (Homo sapiens (Human), UniProt Q96PY6); details: read-out: percent inhibition
[4] = biological target: RSKL1 domain1 (Homo sapiens (Human), UniProt Q96S38); details: read-out: percent inhibition
[5] = biological target: MLK3 (Homo sapiens (Human), UniProt Q16584); details: read-out: percent inhibition
[6] = biological target: GSK3B (Homo sapiens (Human), UniProt P49841); details: read-out: percent inhibition
[7] = biological target: PIP4K2A (Homo sapiens (Human), UniProt P48426); details: read-out: percent inhibition
[8] = biological target: CaMK1a (Homo sapiens (Human), UniProt Q14012); details: read-out: percent inhibition
[9] = biological target: MST1 (Homo sapiens (Human), UniProt Q13043); details: read-out: percent inhibition
[10] = biological target: LOK (Homo sapiens (Human), UniProt O94804); details: read-out: percent inhibition
[11] = tested on: MST1, MST2
[12] = biological target: MAP2K6 (Homo sapiens (Human), UniProt P52564); details: read-out: percent inhibition
[13] = biological target: CaMK2d (Homo sapiens (Human), UniProt Q13557); details: read-out: percent inhibition
[14] = tested on: ZC1/HGK, ZC2/TNIK, ZC3/MINK
[15] = biological target: IKKb (Homo sapiens (Human), UniProt O14920); details: read-out: percent inhibition
[16] = tested on: IKKe, TBK1
[17] = biological target: GSK3A (Homo sapiens (Human), UniProt P49840); details: read-out: percent inhibition
[18] = biological target: JAK2 domain2 (Homo sapiens (Human), UniProt O60674); details: read-out: percent inhibition
[19] = biological target: CDC2 (Homo sapiens (Human), UniProt P06493); details: read-out: percent inhibition
[20] = tested on: KSR1, KSR2
[21] = tested on: FYN, SRC, YES
[22] = biological target: MST2 (Homo sapiens (Human), UniProt Q13188); details: read-out: percent inhibition
[23] = biological target: SLK (Homo sapiens (Human), UniProt Q9H2G2); details: read-out: percent inhibition
[24] = biological target: GPRK6 (Homo sapiens (Human), UniProt P43250); details: read-out: percent inhibition
[25] = biological target: PIK3CG (Homo sapiens (Human), UniProt P48736); details: read-out: percent inhibition
[26] = tested on: Wnk1, Wnk2, Wnk4
[27] = tested on: NEK6, NEK7
[28] = biological target: ZAP70 (Homo sapiens (Human), UniProt P43403); details: read-out: percent inhibition
[29] = biological target: CaMK1d (Homo sapiens (Human), UniProt Q8IU85); details: read-out: percent inhibition
[30] = biological target: GCN2 (Homo sapiens (Human), UniProt Q9P2K8); details: read-out: percent inhibition
[31] = biological target: BRAF (Homo sapiens (Human), UniProt P15056); details: read-out: percent inhibition
[32] = biological target: DGKA (Homo sapiens (Human), UniProt P23743); details: read-out: percent inhibition
Sequence of DGKA (P23743 whole entry): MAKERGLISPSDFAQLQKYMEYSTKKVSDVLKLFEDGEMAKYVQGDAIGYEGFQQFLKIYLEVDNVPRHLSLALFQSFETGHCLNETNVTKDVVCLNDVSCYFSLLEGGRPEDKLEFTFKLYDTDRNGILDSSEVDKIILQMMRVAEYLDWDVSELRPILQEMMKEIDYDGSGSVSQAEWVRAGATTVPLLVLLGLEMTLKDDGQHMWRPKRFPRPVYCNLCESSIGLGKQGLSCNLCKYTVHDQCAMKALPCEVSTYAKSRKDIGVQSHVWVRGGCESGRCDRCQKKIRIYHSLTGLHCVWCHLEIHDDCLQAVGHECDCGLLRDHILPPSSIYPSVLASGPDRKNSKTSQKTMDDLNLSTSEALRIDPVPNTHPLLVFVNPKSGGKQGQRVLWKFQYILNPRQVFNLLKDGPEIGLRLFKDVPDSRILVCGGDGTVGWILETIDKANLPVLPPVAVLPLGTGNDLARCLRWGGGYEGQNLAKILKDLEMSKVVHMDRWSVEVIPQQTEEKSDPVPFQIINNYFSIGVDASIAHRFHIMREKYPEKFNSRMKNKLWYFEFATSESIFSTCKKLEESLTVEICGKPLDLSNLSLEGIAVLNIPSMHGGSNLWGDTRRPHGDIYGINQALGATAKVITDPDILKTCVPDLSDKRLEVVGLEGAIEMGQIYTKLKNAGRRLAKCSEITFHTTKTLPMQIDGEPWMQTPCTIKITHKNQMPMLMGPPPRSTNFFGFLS

Sequence of MLK3 (Q16584 whole entry): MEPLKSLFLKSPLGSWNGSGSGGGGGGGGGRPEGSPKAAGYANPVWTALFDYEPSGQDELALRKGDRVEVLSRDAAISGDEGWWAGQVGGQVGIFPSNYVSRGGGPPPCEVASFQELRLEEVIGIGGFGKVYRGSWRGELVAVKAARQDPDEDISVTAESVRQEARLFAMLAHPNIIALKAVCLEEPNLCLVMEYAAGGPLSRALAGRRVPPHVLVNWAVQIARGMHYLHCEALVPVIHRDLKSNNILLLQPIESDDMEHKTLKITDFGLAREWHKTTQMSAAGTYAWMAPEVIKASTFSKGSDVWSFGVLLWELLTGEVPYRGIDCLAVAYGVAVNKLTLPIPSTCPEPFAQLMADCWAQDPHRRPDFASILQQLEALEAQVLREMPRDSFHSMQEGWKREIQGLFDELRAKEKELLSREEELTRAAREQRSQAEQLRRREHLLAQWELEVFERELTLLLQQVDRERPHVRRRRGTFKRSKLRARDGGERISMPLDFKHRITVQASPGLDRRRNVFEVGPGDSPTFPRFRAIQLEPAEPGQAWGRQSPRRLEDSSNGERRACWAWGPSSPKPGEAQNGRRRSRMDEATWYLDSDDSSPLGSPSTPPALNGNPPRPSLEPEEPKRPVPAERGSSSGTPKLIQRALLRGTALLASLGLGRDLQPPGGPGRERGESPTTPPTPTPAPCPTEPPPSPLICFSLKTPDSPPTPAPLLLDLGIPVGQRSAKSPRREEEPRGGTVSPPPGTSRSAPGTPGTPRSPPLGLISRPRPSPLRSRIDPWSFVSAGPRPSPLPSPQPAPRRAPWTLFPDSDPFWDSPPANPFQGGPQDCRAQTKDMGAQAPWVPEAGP
Sequence of RSKL1 domain1 (Q96S38 whole entry, the tested form may be a part): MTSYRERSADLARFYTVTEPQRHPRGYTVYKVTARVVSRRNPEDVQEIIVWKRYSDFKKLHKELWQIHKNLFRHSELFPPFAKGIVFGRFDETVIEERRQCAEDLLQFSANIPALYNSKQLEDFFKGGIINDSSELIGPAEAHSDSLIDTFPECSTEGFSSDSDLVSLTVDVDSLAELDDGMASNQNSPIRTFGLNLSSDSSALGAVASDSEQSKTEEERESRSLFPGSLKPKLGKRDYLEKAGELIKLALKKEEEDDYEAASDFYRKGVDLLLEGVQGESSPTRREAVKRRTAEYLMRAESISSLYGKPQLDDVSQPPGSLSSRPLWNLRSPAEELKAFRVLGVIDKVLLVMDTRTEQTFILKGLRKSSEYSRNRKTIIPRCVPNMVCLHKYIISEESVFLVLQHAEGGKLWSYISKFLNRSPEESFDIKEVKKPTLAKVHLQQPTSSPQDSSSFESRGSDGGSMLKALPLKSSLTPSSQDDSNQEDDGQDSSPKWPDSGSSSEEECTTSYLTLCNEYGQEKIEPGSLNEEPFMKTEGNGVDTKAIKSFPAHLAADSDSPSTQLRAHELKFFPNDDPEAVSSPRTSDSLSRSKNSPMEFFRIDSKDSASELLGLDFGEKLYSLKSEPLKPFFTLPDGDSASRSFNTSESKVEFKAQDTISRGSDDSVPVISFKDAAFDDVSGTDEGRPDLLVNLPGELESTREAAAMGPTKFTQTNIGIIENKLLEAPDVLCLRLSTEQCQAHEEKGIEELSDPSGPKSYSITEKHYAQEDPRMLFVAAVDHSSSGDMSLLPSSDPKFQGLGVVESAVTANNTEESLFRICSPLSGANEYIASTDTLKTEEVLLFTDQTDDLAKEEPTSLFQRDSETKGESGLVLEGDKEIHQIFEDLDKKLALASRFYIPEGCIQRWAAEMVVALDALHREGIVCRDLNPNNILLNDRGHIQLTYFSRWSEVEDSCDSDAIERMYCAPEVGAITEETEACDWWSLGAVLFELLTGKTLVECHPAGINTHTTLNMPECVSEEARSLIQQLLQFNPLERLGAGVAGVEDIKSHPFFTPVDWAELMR
Sequence of ACK (Q07912 whole entry): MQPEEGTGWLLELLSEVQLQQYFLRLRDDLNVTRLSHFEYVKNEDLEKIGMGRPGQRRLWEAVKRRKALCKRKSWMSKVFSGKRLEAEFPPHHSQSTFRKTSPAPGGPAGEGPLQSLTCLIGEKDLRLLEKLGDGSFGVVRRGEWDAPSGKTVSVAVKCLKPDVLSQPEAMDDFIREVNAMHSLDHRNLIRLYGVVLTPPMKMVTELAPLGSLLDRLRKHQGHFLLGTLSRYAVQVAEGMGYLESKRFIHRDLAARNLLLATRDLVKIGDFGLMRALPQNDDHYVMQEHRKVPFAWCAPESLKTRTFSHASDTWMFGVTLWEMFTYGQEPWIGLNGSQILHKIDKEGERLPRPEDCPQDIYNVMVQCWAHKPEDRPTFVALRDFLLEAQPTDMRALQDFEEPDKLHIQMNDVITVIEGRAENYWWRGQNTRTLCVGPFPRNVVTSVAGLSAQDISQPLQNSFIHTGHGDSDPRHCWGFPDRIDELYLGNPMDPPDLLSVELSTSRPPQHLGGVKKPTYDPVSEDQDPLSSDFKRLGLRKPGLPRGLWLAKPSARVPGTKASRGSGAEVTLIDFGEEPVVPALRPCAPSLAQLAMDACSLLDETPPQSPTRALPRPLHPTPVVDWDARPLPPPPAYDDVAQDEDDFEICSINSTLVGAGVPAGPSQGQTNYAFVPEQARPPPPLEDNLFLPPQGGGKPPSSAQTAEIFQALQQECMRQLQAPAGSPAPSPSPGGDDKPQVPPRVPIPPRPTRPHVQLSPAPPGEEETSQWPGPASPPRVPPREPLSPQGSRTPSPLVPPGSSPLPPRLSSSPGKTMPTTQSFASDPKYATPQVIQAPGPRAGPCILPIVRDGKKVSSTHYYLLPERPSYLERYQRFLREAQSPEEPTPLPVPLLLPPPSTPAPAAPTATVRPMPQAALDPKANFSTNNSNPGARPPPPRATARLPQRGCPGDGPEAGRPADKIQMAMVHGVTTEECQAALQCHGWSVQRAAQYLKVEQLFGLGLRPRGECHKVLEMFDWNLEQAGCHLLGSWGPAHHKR
Sequence of GPRK6 (P43250 whole entry): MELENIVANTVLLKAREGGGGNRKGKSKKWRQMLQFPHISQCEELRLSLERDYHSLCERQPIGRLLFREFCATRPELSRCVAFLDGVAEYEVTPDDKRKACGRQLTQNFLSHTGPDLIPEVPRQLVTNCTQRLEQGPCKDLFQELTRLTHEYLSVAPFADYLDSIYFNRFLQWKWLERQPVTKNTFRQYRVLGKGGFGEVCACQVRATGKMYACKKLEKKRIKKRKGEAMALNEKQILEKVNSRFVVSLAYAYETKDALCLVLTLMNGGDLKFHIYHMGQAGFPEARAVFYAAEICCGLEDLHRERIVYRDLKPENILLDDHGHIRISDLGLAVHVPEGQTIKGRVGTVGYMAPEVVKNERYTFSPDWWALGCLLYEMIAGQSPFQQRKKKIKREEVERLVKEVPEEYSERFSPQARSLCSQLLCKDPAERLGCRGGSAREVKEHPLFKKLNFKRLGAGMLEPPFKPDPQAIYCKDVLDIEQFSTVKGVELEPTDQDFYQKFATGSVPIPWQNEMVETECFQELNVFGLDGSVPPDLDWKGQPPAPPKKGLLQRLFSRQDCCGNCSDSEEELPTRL
Sequence of CaMK1d (Q8IU85 whole entry): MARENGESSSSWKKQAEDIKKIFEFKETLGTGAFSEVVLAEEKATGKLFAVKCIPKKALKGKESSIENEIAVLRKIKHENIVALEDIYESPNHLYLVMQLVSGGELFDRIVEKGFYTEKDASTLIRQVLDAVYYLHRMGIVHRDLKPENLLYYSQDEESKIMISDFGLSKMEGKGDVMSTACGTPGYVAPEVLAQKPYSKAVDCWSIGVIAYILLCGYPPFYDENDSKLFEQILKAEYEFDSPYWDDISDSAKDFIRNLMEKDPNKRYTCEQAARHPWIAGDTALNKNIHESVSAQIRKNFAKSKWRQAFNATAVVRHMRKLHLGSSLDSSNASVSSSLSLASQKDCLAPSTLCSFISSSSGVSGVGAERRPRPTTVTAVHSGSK
Sequence of MAP2K6 (P52564 whole entry): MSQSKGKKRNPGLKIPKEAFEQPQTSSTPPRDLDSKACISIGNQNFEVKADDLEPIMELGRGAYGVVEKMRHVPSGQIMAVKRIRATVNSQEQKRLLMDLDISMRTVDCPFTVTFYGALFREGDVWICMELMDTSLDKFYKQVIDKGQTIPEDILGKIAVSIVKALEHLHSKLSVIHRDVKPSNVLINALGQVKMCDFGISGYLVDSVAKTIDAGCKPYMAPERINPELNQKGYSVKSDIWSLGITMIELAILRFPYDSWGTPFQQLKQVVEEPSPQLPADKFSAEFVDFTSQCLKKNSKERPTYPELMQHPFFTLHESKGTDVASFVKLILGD

Compound: Cn1cc(-c2c[nH]c3ncnc(N4CCOCC4)c23)cn1 [Example 1, 5-(1-Methyl-1H-pyrazol-4-yl)-4-(morpholin-4-yl)-7H-pyrrolo[2,3-d]pyrimidine]
- inhibition at 0.1 µM ([1]; ACK, 0.1 μM): 5.2%
- inhibition at 1 µM ([1]; ACK, 1 μM): -8%
- inhibition at 0.1 µM ([2]; eEF2K, 0.1 μM): -9.6%
- inhibition at 1 µM ([2]; eEF2K, 1 μM): -6.5%
- inhibition at 0.1 µM ([3]; NEK1, 0.1 μM): 7%
- inhibition at 1 µM ([3]; NEK1, 1 μM): -10.1%
- inhibition at 0.1 µM ([4]; RSKL1 domain1, 0.1 μM): 5.5%
- inhibition at 1 µM ([4]; RSKL1 domain1, 1 μM): -0.2%
- inhibition at 0.1 µM ([5]; MLK3, 0.1 μM): 1.4%
- inhibition at 1 µM ([5]; MLK3, 1 μM): 4.5%
- inhibition at 0.1 µM ([6]; GSK3B, 0.1 μM): 2.4%
- inhibition at 1 µM ([6]; GSK3B, 1 μM): -5.2%
- inhibition at 0.1 µM ([7]; PIP4K2A, 0.1 μM): 12.1%
- inhibition at 1 µM ([7]; PIP4K2A, 1 μM): 6.8%
- inhibition at 0.1 µM ([8]; CaMK1a, 0.1 μM): 2%
- inhibition at 1 µM ([8]; CaMK1a, 1 μM): 6.3%
- inhibition at 0.1 µM ([9]; 0.1 μM): 13.2%
- inhibition at 1 µM ([9]; 1 μM): 50.8%
- inhibition at 0.1 µM ([10]; LOK, 0.1 μM): 5.7%
- inhibition at 1 µM ([10]; LOK, 1 μM): 22.6%
- percent inhibition ([11]; 0.1 μM): −14.5%
- percent inhibition ([11]; 1 μM): 24.8%
- inhibition at 0.1 µM ([12]; MAP2K6, 0.1 μM): 17.5%
- inhibition at 1 µM ([12]; MAP2K6, 1 μM): 19%
- inhibition at 0.1 µM ([13]; CaMK2d, 0.1 μM): -45.3%
- inhibition at 1 µM ([13]; CaMK2d, 1 μM): -38.1%
- percent inhibition ([14]; 0.1 μM): −18%
- percent inhibition ([14]; 1 μM): 4.9%
- inhibition at 0.1 µM ([15]; IKKb, 0.1 μM): 16.1%
- inhibition at 1 µM ([15]; IKKb, 1 μM): 10.8%
- percent inhibition ([16]; 0.1 μM): 1.5%
- percent inhibition ([16]; 1 μM): 23.7%
- inhibition at 0.1 µM ([17]; GSK3A, 0.1 μM): -0.2%
- inhibition at 1 µM ([17]; GSK3A, 1 μM): -11.4%
- inhibition at 0.1 µM ([18]; JAK2 domain2, 0.1 μM): 13.8%
- inhibition at 1 µM ([18]; JAK2 domain2, 1 μM): 16.7%
- inhibition at 0.1 µM ([19]; CDC2, 0.1 μM): -4%
- inhibition at 1 µM ([19]; CDC2, 1 μM): 14.7%
- percent inhibition ([20]; 0.1 μM): 1.5%
- percent inhibition ([20]; 1 μM): −14%
- percent inhibition ([21]; 0.1 μM): −24.1%
- percent inhibition ([21]; 1 μM): −56.3%
- inhibition at 0.1 µM ([22]; 0.1 μM): 10.1%
- inhibition at 1 µM ([22]; 1 μM): 49.4%
- inhibition at 0.1 µM ([23]; SLK, 0.1 μM): 22.9%
- inhibition at 1 µM ([23]; SLK, 1 μM): 50.6%
- inhibition at 0.1 µM ([24]; GPRK6, 0.1 μM): 8.9%
- inhibition at 1 µM ([24]; GPRK6, 1 μM): 23.7%
- inhibition at 0.1 µM ([25]; PIK3CG, 0.1 μM): -18.6%
- inhibition at 1 µM ([25]; PIK3CG, 1 μM): -62.9%
- percent inhibition ([26]; 0.1 μM): −15%
- percent inhibition ([26]; 1 μM): −13.5%
- percent inhibition ([27]; 0.1 μM): −1.7%
- percent inhibition ([27]; 1 μM): −17%
- inhibition at 0.1 µM ([28]; ZAP70, 0.1 μM): -23.2%
- inhibition at 1 µM ([28]; ZAP70, 1 μM): 3.1%
- inhibition at 0.1 µM ([29]; CaMK1d, 0.1 μM): 8.4%
- inhibition at 1 µM ([29]; CaMK1d, 1 μM): 3.2%
- inhibition at 0.1 µM ([30]; GCN2, 0.1 μM): 0.1%
- inhibition at 1 µM ([30]; GCN2, 1 μM): -25.1%
- inhibition at 0.1 µM ([31]; BRAF, 0.1 μM): -6.5%
- inhibition at 1 µM ([31]; BRAF, 1 μM): -51.5%
- inhibition at 0.1 µM ([32]; DGKA, 0.1 μM): -21%
- inhibition at 1 µM ([32]; DGKA, 1 μM): -16.6%

Compound: N#Cc1cccc(-c2c[nH]c3ncnc(N4CCOCC4)c23)c1 [Example 4, 3-[4-(Morpholin-4-yl)-7H-pyrrolo[2,3-d]pyrimidin-5-yl]benzonitrile]
- inhibition at 0.1 µM [1]: 0.8%
- inhibition at 1 µM [1]: 7.7%
- inhibition at 0.1 µM [2]: -27.1%
- inhibition at 1 µM [2]: 2.8%
- inhibition at 0.1 µM [3]: -8.9%
- inhibition at 1 µM [3]: -1.9%
- inhibition at 0.1 µM [4]: 1.1%
- inhibition at 1 µM [4]: -1.8%
- inhibition at 0.1 µM [5]: -14.1%
- inhibition at 1 µM [5]: 19.9%
- inhibition at 0.1 µM [6]: -3.7%
- inhibition at 1 µM [6]: 6.7%
- inhibition at 0.1 µM [7]: -12.1%
- inhibition at 1 µM [7]: 1.9%
- inhibition at 0.1 µM [8]: -9.2%
- inhibition at 1 µM [8]: 1.9%
- inhibition at 0.1 µM [10]: 11.9%
- inhibition at 1 µM [10]: 53.6%
- inhibition at 0.1 µM [12]: -15.1%
- inhibition at 1 µM [12]: 13.5%
- inhibition at 0.1 µM [13]: -0.4%
- inhibition at 1 µM [13]: 10.8%
- percent inhibition ([14]; 0.1 μM): −3.2%
- percent inhibition ([14]; 1 μM): 14.8%
- inhibition at 0.1 µM [15]: -15.5%
- inhibition at 1 µM [15]: -15.8%
- percent inhibition ([16]; 0.1 μM): −6.7%
- percent inhibition ([16]; 1 μM): 18.8%
- inhibition at 0.1 µM [17]: -0.9%
- inhibition at 1 µM [17]: 7.2%
- inhibition at 0.1 µM [18]: 0.7%
- inhibition at 1 µM [18]: 16.4%
- inhibition at 0.1 µM [19]: -6.7%
- inhibition at 1 µM [19]: 12.9%
- percent inhibition ([20]; 0.1 μM): −8.7%
- percent inhibition ([20]; 1 μM): 11.7%
- percent inhibition ([21]; 0.1 μM): −22.8%
- percent inhibition ([21]; 1 μM): −8.8%
- inhibition at 0.1 µM [23]: 10.5%
- inhibition at 1 µM [23]: 60.7%
- inhibition at 0.1 µM [24]: -3.9%
- inhibition at 1 µM [24]: 10.9%
- inhibition at 0.1 µM [25]: -20.4%
- inhibition at 1 µM [25]: -5.6%
- percent inhibition ([26]; 0.1 μM): −1.9%
- percent inhibition ([26]; 1 μM): −1.3%
- percent inhibition ([27]; 0.1 μM): −5.3%
- percent inhibition ([27]; 1 μM): −4.9%
- inhibition at 0.1 µM [28]: -4.9%
- inhibition at 1 µM [28]: 6.8%
- inhibition at 0.1 µM [29]: -12.1%
- inhibition at 1 µM [29]: 0.9%
- inhibition at 0.1 µM [30]: -13.6%
- inhibition at 1 µM [30]: 0.6%
- inhibition at 0.1 µM [31]: 1.2%
- inhibition at 1 µM [31]: -1.2%
- inhibition at 0.1 µM [32]: -15.9%
- inhibition at 1 µM [32]: -8.7%
